Tests used:
[1] = stability in the neat state (% chlorine by iodometric titration), Table D; type: physicochemical; settings: 40° C.
Protocol: In those instances, the data were acquired at ambient temperature (approximately 23° C.). The method used was similar to that described above in which the rate of disappearance of "positive" chlorine was followed iodometrically by titration of iodine liberated from added potassium iodide with standard sodium thiosulfate solution. Samples of the compounds were individually sealed in ampoules and stored in the dark at 23° C. or 40° C. and weighed amounts removed from time to time for analysis.
For each of the compounds analyzed as indicated above, percent chlorine was plotted as ordinate against time in days as abscissa on semi-logarithmic paper and the points connected by a smooth curve for each compound.

[2] = tested on: Staphylococcus aureus ATCC 6538; experiment: contact germicidal (bactericidal) time before and after 14 day incubation of solutions at 40° C., Table B; type: cell-based; settings: pH 7.0
Protocol: (§1) The compounds of the invention and certain reference compounds were tested in the germidical efficiency test, a modification of the standard serial dilution test, against Staphylococcus aureus ATCC 6538. In the germicidal efficiency test, instead of determining the minimum inhibitory concentration as in the serial dilution test procedure, the time required to effect complete sterilization of the micro-organism when exposed to a given concentration of the test substance is determined. This procedure affords a basis of comparison of the time dependent efficacies of the various test substances which gives a measure not only of the germidical efficacy of the test species but, since as will be seen germicidal efficiency of the N-chloro compounds generally tends to diminish with time, apparently owing to decomposition of, and therefore dilution of, the active species, the test procedure also provides an indication of the efficacy to be expected at varying time intervals after solution of the test species in the application medium. The test procedure is described as follows: A stock solution of known concentration of each compound to be tested was prepared in 0.1M sodium dihydrogen phosphate buffered to pH 7.0. To 5 ml. of the test solution was added 0.2 ml. of an overnight broth culture containing from 6×10^6 to 8×10^6 organisms/ml. of Staphylococcus aureus ATCC 6538 and 5 g. of gelysate peptone and 3 g. of beef extract per 1000 ml. of water. At time intervals of 0.5, 1, 2, 3, 4, 5, 6, 7, 8, 9, 10, 15 and 30 minutes, a loop of this suspension was subcultured into 5 ml. of sterile nutrient broth (5 g. of gelysate peptone and 3 g. of beef extract/1000 ml. of water), and the samples were incubated at 37° C. for 7 days with daily observation for evidence of bacterial growth. The time interval in which no bacterial growth was observed after the incubation period in a particular sample was recorded as the end point.
(§2) The stabilities and the time-dependent efficacies of the claimed and reference species were determined by comparing the contact germicidal times and the initial and final concentrations of positive chlorine in solutions of the test species in 0.1M sodium dihydrogen phosphate buffered to pH 7.0 before and after 14 day incubation of the solutions at 40° C. The results are given in Table B below, where the columns headed "Bc Time" refers to the bactericidal time in minutes.

[3] = tested on: Staphylococcus aureus ATCC 6538; experiment: germicidal efficiency test (modified serial dilution; time to complete sterilization), Table A; type: cell-based; settings: 473 ppm +Cl, pH 7.0
Protocol: The compounds are thus useful as bactericidal agents.
as §1
(§3) The germicidal kill times so-obtained at various concentrations of the compounds of the invention and of certain reference compounds are given in Table A below. The compounds are identified in each case by the Example number above where the compounds are described. Here and elsewhere in the specification that follows, concentrations are expressed in parts per million (ppm) of "positive" chlorine, which was determined in each instance by addition of excess aqueous potassium iodide to an acidified solution of the test compound and titration of the iodine liberated with standard sodium thiosulfate solution.

[4] = positive chlorine concentration before and after 14 day incubation of solutions at pH 7.0, 40° C., Table B; type: physicochemical
Protocol: as §3, §2

[5] = hydrolytic stability in 0.1M sodium dihydrogen phosphate pH 7.0 at 40° (first-order kinetics), Table C; type: physicochemical
Protocol: A further measure of the relative stabilities of the reference and claimed species was obtained by measuring the hydrolytic stability of the various species in 0.1M sodium dihydrogen phosphate buffered to pH 7.0 at 40°. For each species, the rate of change in the concentration of positive chlorine in the solution was measured by the volume of standard thiosulfate required to titrate a series of aliquots of a standard volume of the solution at various time intervals using potassium iodide/sodium thiosulfate as detailed above. The volumes of thiosulfate required to titrate each sample so obtained were interpreted as first-order kinetic processes. The hydrolytic stabilities of the reference and claimed species under the experimental conditions were characterized by the reaction rate constants and half-lives obtained from a linear regression analysis of the experimental data. The results obtained are given in Table C below and are also shown in FIG. 1 where the volumes in milliliters of standard thiosulfate required to titrate the positive chlorine in the various samples are plotted as ordinate against time in days as abscissa.

## CC1(C)CN(Cl)C(=O)O1 [Example 1G, 3-Chloro-5,5-dimethyl-2-oxazolidinone]
[1]; 0 Days
  % Cl, neat: 19.6%
[1]; 1 Day
  % Cl, neat: 22.1%
[1]; 4 Days
  % Cl, neat: 23.7%
[1]; 7 Days
  % Cl, neat: 16.5%
[1]; 11 Days
  % Cl, neat: 18.1%
[1]; 15 Days
  % Cl, neat: 14.4%
[1]; 19 Days
  % Cl, neat: 10.0%
[1]; 22 Days
  % Cl, neat: 0%
[1]; neat
  stability in the neat state (in words): surprising stability
[2]; after 14 days at 40° C.
  bactericidal activity after the test period (in words): retained a good measure of bactericidal activity superior to each of the reference species
[2]; before incubation, at initial ppm +Cl of the same line
  Bc Time, initial: 7 min
[3]
  Bactericidal Time: 7 min
[4]; 14 days, 40° C., pH 7.0
  decomposition over the test period (in words): substantially decomposed over the test period
[4]; after 14 day incubation at 40° C., 0.1M phosphate pH 7.0
  Final Concn. of positive chlorine: 43 ppm +Cl
[4]; before incubation, 0.1M phosphate pH 7.0
  Initial Concn. of positive chlorine: 473 ppm +Cl
[5]; 0.1m phosphate buffer, hydrolysis, 0.1M phosphate pH 7.0, 40°
  half-life: 86.6 h
[5]; hydrolysis, first-order, 0.1M phosphate pH 7.0, 40°
  Rate Constant k: 0.008 h⁻¹
[5]; hydrolysis, pH 7.0, 40°
  half-life relative to the half-lives of the reference species: around twice to eight times as great
[5]; pH 7.0, 40°
  hydrolytic stability (in words): somewhat less stable than the corresponding 4,4-dimethyl compound
